Source: publication PMC9399069, “Imaging PARP with [^18F]rucaparib in pancreatic cancer models” (European Journal of Nuclear Medicine and Molecular Imaging, 2022)

Experiments:
[1] = tested on: PSN1 cells; test: Cell retention of [18F]rucaparib and [18F]olaparib in PSN1 cells; assay type: cell-based, human; conditions: for Efflux: fraction exiting cells: in the first 10–30 min, biphasic efflux
Procedure: (§1) AsPC1 (1 × 10^5 cells/well) and PSN1 cells (7.5 × 10^4 cells/well) were exposed to [^18F]rucaparib (100 kBq, 4.8 GBq/μmol; [^TotalF]rucaparib final concentration: 258 nM) or [^18F]olaparib (400 kBq, 2.8 GBq/μmol: [^TotalF]olaparib final concentration: 242 nM) in 24-well plates at 37 °C for 30 min. Cell culture medium was removed, and cells were washed with PBS, followed by the addition of fresh medium (300 μL). Cells were then further incubated at 37 °C. Cell culture medium was removed, and cells were washed with PBS at different times (0–3 h). Cells were lysed using RIPA buffer for 15 min at room temperature, and the amount of ^18F in the cell lysates was measured as above.

[2] = tested on: pancreatic cancer; conditions: phase II, pancreatic cancer patients with BRCA1/2 and PALB2 variants; cited from earlier work
[3] = tested on: PSN1 cells; test: Protein expression by flow cytometry after PARP inhibitors or DNA-damaging reagents, PSN1 cells; assay type: cell-based, human; conditions: 3 h
Procedure: (§2) Relative expression of PARP1, 2 and 3, ALDH2 and IMPDH2 was determined by flow cytometry. Cells (1 × 10^6 cells/well) were seeded in 96-well plates in growth medium, washed with FACS buffer (PBS, 2% FBS, 1 mM EDTA, 0.1% NaN3) and centrifuged at 500×g for 5 min. Immunostaining was performed using the Foxp3/transcription factor staining buffer set (eBioscience^TM, USA). Intracellular staining was conducted in permeabilisation buffer for 30 min at 4 °C in the dark using the following antibodies: AF488-conjugated anti-PARP-1 (1:100; sc-80070), AF594-conjugated anti-PARP-2 (1:100; sc-393310), anti-PARP-3 (1:100; sc-390771) or anti-PARP-tankyrase-1/2 (1:100; sc-365897) from Santa Cruz Biotechnology Inc. (USA), AF488-conjugated anti-IMPDH2 (1:500; ab-200770) from Abcam plc. (UK) and AF488-conjugated anti-ALDH2 (1:100, ABIN6817568) from Antibodies-online GmbH (UK). Fixable viability dye ef780 (1:4000; eBioscience^TM; 65-0865-14) was used for live and dead cells discrimination. Fixation of immunostained cells was performed for 15 min at room temperature. Flow cytometry was conducted on the CytoFLEX benchtop flow cytometer (Beckman Coulter, USA), with appropriate lasers and filters, positive and negative controls. Data were analysed using FlowJo^TM (Tree Star Inc., BD Biosciences, USA).
(§3) AsPC1 (1 × 10^5 cells/well) and PSN1 cells (7.5 × 10^4 cells/well) were exposed to methyl methanesulfonate (MMS) or temozolomide (TMZ) (100 μM, in a total of 270 μL growth medium) for 3 h at 37 °C. Additionally, [^18F]rucaparib (500 kBq, 3.6 GBq/μmol; [^TotalF]rucaparib final concentration: 301 nM) or [^18F]olaparib (400 kBq, 8.5 GBq/μmol; [^TotalF]olaparib final concentration: 300 nM) was added, and the cells were incubated at 37 °C for 30 min. Cell culture medium was removed, and cells were washed with PBS. For cell retention, fresh medium (300 μL) was added to the cells. Cells were then further incubated at 37°C for 3 h. Cell culture medium was removed, and the amount of ^18F in the cell lysates was measured as above. Protein expression of the cells after DNA-damaging treatments (or PARP inhibitors 10 μM) was performed using flow cytometry as above.

[4] = tested on: AsPC1 cells; test: Protein expression by flow cytometry after PARP inhibitors or DNA-damaging reagents, AsPC1 cells; assay type: cell-based, human; conditions: 3 h
Procedure: as §2, §3

[5] = tested on: PSN1 xenografts; test: Autoradiography of PSN1 tumour sections; assay type: in vivo, Balb/c nu/nu mice; conditions: unlabelled drug 0.5 mg co-administered
Procedure: Ex vivo localisation of [^18F]rucaparib in PSN1 xenografts was determined using autoradiography of tumour sections (10 μm). Uptake in the same tumour sections was compared to immunohistochemistry staining for PARP1, 2 and 3. Full details of procedures and protocols are provided in Supplemental Information.
PSN1 xenograft tissues were harvested and immediately flash-frozen using liquid nitrogen, and sectioned (10 µm) using a Leica CM1950 cryostat. Tissue sections were thaw-mounted onto Superfrost PLUS glass microscope slides (Menzel-Glaser, Thermo Scientific) and allowed to dry briefly at room temperature (RT). The slides were then fixed in 10% neutral buffered formalin […] (NBF) for 10 min at RT, dried, and exposed to a storage phosphor screen (PerkinElmer, Super Resolution, 12.5 x 25.2 cm) in a standard X-ray cassette for 15 h at 4 °C. The phosphor screen was then imaged using a Cyclone® Plus Storage Phosphor System (PerkinElmer).

[6] = tested on: AsPC1 cells; test: Cell retention of [18F]rucaparib and [18F]olaparib in AsPC1 cells; assay type: cell-based, human; conditions: for Efflux: fraction exiting cells: in the first 10–30 min, biphasic efflux
Procedure: as §1

[7] = design: method as in PMID 24216281, PMID 26438157; conditions: 10 mg/kg, administered orally or intraperitoneally; cited from earlier work
[8] = tested on: SW620 cells; design: method as in PMID 24556618; conditions: cited from earlier work
[9] = tested on: PSN1 xenografts; design: method as in PMID 30389822; conditions: cited from earlier work
[10] = design: method as in PMID 25895168, PMID 26337803, PMID 27689533; conditions: relatively low tumour uptake; cited from earlier work
[11] = tested on: breast cancer xenografts; design: method as in PMID 27841728, PMID 27069769; conditions: 1 h post-injection; cited from earlier work
[12] = tested on: AsPC1 cells; test: Uptake and retention of radiolabelled PARP inhibitors in AsPC1 cells treated with DNA-damaging reagents; assay type: cell-based, human; conditions: 100 μM, 3 h, retention at 3 h
Procedure: as §3

[13] = tested on: PSN1 cells; test: Uptake and retention of radiolabelled PARP inhibitors in PSN1 cells treated with DNA-damaging reagents; assay type: cell-based, human; conditions: 100 μM, 3 h, retention at 3 h
Procedure: as §3

For CNCc1ccc(-c2[nH]c3cc(F)cc4c3c2CCNC4=O)cc1 [rucaparib], the “Weighted cellular efflux half-life” value [1] is given as 43.9 ± 3.2 min, the “Efflux: fraction exiting cells” value [1] is given as “more than 50%” and the “Fraction of patients who benefited from treatment” value [2] is given as “two-thirds”. For the same molecule, the “PARP1 expression (MFI) after exposure of PARP inhibitors” value ([3]; 10 μM, flow cytometry) was “upregulated”, the “PARP1 expression (MFI) after exposure of PARP inhibitors” value ([4]; 10 μM, flow cytometry) was “upregulated” and the “18F signal of [18F]rucaparib in tumour sections from treated tumours” value [5] was “significantly reduced”. The “Weighted cellular efflux half-life” value [6] was 49.9 ± 6.8 min, the “Efflux: fraction exiting cells” value [6] was “more than 50%” and the Blood half-life [7] was 84 to 90 min. For the same molecule, the Cellular efflux half-life [8] was 20 min.
For O=C(c1cc(Cc2n[nH]c(=O)c3ccccc23)ccc1[18F])N1CCN(C(=O)C2CC2)CC1 [[^18F]olaparib], the Tumour uptake ([9]; PSN1 xenografts, 1 h post-injection) is listed as 3.16 ± 0.36 %ID/g and the Weighted blood half-life ([9]; same xenograft mice) is listed as 32.3 min.
With O=C(c1cc(Cc2n[nH]c(=O)c3ccccc23)ccc1F)N1CCN(C(=O)C2CC2)CC1 [olaparib] the “Efflux: fraction exiting cells” value [1] was “more than 50%”, the “18F signal of [18F]rucaparib in tumour sections from treated tumours” value [5] was “significantly reduced” and the “Efflux: fraction exiting cells” value [6] was “more than 50%”.
In the case of CC1=CC(C)=[N+]2C1=Cc1ccc(CCC(=O)N3CCN(C(=O)c4cc(Cc5n[nH]c(=O)c6ccccc56)ccc4F)CC3)n1[B-]2(F)[18F] (centres unmarked) [[^18F]PARPi-FL], the Tumour uptake [10] is listed as less than 1 %ID/g.
For O=C1NCCn2c(-c3ccc(OCC[18F])cc3)nc3cccc1c32 [[^18F]FTT], the “Tumour-to-muscle (T/M) ratio” value [11] is listed as 1.2–1.9.
In the case of Cn1nnc2c(C(N)=O)ncn2c1=O [TMZ, temozolomide], the “Cell association and retention of [TotalF]rucaparib and [TotalF]olaparib after exposure to DNA-damaging reagent” value [12] is reported as “increased”, the “Cell association and retention of [TotalF]rucaparib and [TotalF]olaparib after exposure to DNA-damaging reagent” value [13] is reported as “increased” and the γH2AX expression ([3]; 100 μM) is reported as “increasing trend”. For the same molecule, the “Upregulation of PARP proteins” value ([3]; 100 μM, flow cytometry) was less than 10%, the “Upregulation of PARP proteins” value ([4]; 100 μM, flow cytometry) was less than 10% and the γH2AX expression ([4]; 100 μM, not statistically significant in AsPC1 cells) was “increasing trend”.
